Measurements reported in ChEMBL document CHEMBL3244240, “Antitubercular 2,8-bis(alkylaminomethyl)phenazines” (1978).
≈ marks a conversion by molar mass, not a printed value. Calls of active or inactive are those of the source. The calls are words filed in the database; no cut-off is given here.

Legend:
[1] = test system: Mycolicibacterium smegmatis; assay: Antitubercular against Mycobacterium smegmatis ATCC 607 by agar dilution method; format: functional
[2] = test system: Mycobacterium tuberculosis; assay: Antitubercular against Mycobacterium tuberculosis H37Rv infected in mouse assessed as host survival at 5 mg/kg/day administered with food for 19 days measured on day 30; format: functional, organism-based
[3] = test system: Mycobacterium tuberculosis; assay: Antitubercular against Mycobacterium tuberculosis H37Rv infected in mouse assessed as host survival at 19 mg/kg/day administered with food for 19 days measured on day 30; format: functional, organism-based
[4] = test system: Mycobacterium tuberculosis; assay: Antitubercular against Mycobacterium tuberculosis H37Rv infected in mouse assessed as host survival at 75 mg/kg/day administered with food for 19 days measured on day 30; format: functional, organism-based
[5] = test system: Mycobacterium tuberculosis; assay: Antitubercular against Mycobacterium tuberculosis H37Rv infected in mouse assessed as host survival at 2.5 mg/kg/day administered with food for 19 days measured on day 30; format: functional, organism-based
[6] = test system: Mycobacterium tuberculosis; assay: Antitubercular against Mycobacterium tuberculosis H37Rv infected in mouse assessed as host survival at 9 mg/kg/day administered with food for 19 days measured on day 30; format: functional, organism-based

| Structure (SMILES) | MIC [1] | also measured |
| --- | --- | --- |
| CCCCCCN(CCCCCC)Cc1ccc2nc3ccc(CN(CCCCCC)CCCCCC)cc3nc2c1 | 62 µg/mL (≈ 108 µM) |  |
| CCCCCN(CCCCC)Cc1ccc2nc3ccc(CN(CCCCC)CCCCC)cc3nc2c1 | 62 µg/mL (≈ 119 µM) |  |
| Cl.c1ccc(CN2CCN(Cc3ccc4nc5ccc(CN6CCN(Cc7ccccc7)CC6)cc5nc4c3)CC2)cc1 | 10 µg/mL |  |
| c1cc2nc3ccc(CN4CCCCC4)cc3nc2cc1CN1CCCCC1 | 62 µg/mL (≈ 166 µM) |  |
| CC[C@@H](CO)NCCN[C@@H](CC)CO [ETHAMBUTOL] | 0.5 µg/mL (≈ 2.45 µM) |  |
| CC1CN(Cc2ccc3nc4ccc(CN5CC(C)NC(C)C5)cc4nc3c2)CC(C)N1.Cl (stereo not drawn) | 62 µg/mL |  |
| CN1CCN(Cc2ccc3nc4ccc(CN5CCN(C)CC5)cc4nc3c2)CC1 | 62 µg/mL (≈ 153 µM) |  |
| CCCCN(CCCC)Cc1ccc2nc3ccc(CN(CCCC)CCCC)cc3nc2c1.Cl | 2.5 µg/mL | Activity [2]: inactive; Activity [3]: inactive; Activity [4]: Active |
| Cl.c1ccc(N2CCN(Cc3ccc4nc5ccc(CN6CCN(c7ccccn7)CC6)cc5nc4c3)CC2)nc1 | 125 µg/mL |  |
| CCN(CC)Cc1ccc2nc3ccc(CN(CC)CC)cc3nc2c1.Cl | 5 µg/mL |  |
| CCCCCCCN(CCCCCCC)Cc1ccc2nc3ccc(CN(CCCCCCC)CCCCCCC)cc3nc2c1 | 62 µg/mL (≈ 98.2 µM) |  |
| NNC(=O)c1ccncc1 [ISONIAZID] | 0.05 µg/mL (≈ 0.365 µM) | Activity [5]: inactive; Activity [6]: Active |
| CCCCCCCCN(CCCCCCCC)Cc1ccc2nc3ccc(CN(CCCCCCCC)CCCCCCCC)cc3nc2c1 | 62 µg/mL (≈ 90.2 µM) |  |
